The text below walks through data of patent US9073942B2, “Antiviral compounds with a heterotricycle moiety” (Lupin Limited, priority 2012, dated 2015).

The subject of test [1] is bicistronic genotype 2a replicon in Huh 7.5 cells. The test can be described thus: HCV replicon assay, genotype 2a (Huh7.5/J6/JFH1/EMCVIRES/hRlucNeo cell line, Renilla luciferase readout). It is filed as cell-based. Conditions: Hepatitis C virus, Huh7.5, 72 h, read-out: Gt2a IC50. From the text:
(§1) Anti-viral activity of the compounds of the invention was monitored using an HCV replicon assay. The Huh7.5 Con1/SG-Neo(I)hRluc2aUb cell line persistently expressing a bicistronic genotype 1b replicon in Huh 7.5 cells and the Huh7.5/J6/JFH1/EMCVIRES/hRlucNeo cell line expressing a bicistronic genotype 2a replicon in Huh 7.5 cells were obtained from Apath LLC. These cell lines were used to test inhibition of replicon levels by test compound using Renilla luciferase enzyme activity readout as a measure of viral replication efficiency.
(§2) Briefly, 7000-7500 cells were seeded in 96 well black clear bottom plates and allowed to adhere overnight. The next day each compound was added in triplicate to the cells at the desired concentration with a final DMSO concentration of 0.5%. Cells in media alone and cells incubated without drug with 0.5% DMSO served as controls. The plates were incubated for 72h at 37° C. prior to running the luciferase assay. Enzyme activity was measured using Renilla-Glo Luciferase Assay kit from Promega as per the manufacturer's instructions. The following equation was used to generate the percent inhibition value for each test concentration.
(§3) The IC50 value was determined using GraphPad Prism and the following equation: Y=Bottom+(Top−Bottom)(1+10^((Log IC50−X)*Hill slope))
(§4) IC50/values % inhibitions of compounds were determined 2-3 times in the replicon assays.

For test [2], the system named is bicistronic genotype 1b replicon in Huh 7.5 cells. The test can be described thus: HCV replicon assay, genotype 1b (Huh7.5 Con1/SG-Neo(I)hRluc2aUb cell line, Renilla luciferase readout). It is filed as cell-based. Conditions: Hepatitis C virus, Huh7.5, 72 h, read-out: Gt1b IC50.
Description: as §1, §2, §3, §4

For the molecule `COC(=O)N[C@H](C(=O)N1CCC[C@H]1c1ncc(-c2ccc3c(c2)OCc2cc(-c4cnc([C@@H]5CCCN5C(=O)[C@@H](NC(=O)OC)C(C)C)[nH]4)sc2-3)[nH]1)C(C)C` [Compound 1, dimethyl((2S,2′S)-((2S,2′S)-2,2′-(5,5′-(4H-thieno[3,2-c]chromene-2,7-diyl)bis(1H-imidazole-5,2-diyl))bis(pyrrolidine-2,1-diyl))bis(3-methyl-1-oxobutane-2,1-diyl))dicarbamate], the IC50 in test [1] and in test [2] was 0.001 to 0.999 nM throughout.
Take `COC(=O)N[C@H](C(=O)N1CCC[C@H]1c1ncc(-c2ccc3c(c2)OCCc2cc(-c4cnc([C@@H]5CCCN5C(=O)[C@@H](NC(=O)OC)C(C)C)[nH]4)sc2-3)[nH]1)C(C)C` [Compound 2, dimethyl((2S,2′S)-((2S,2′S)-2,2′-(5,5′-(4,5-dihydrobenzo[b]thieno[2,3-d]oxepine-2,8-diyl)bis(1H-imidazole-5,2-diyl))bis(pyrrolidine-2,1-diyl))bis(3-methyl-1-oxobutane-2,1-diyl))dicarbamate]: the IC50 was 1 to 100 nM in test [1] and 0.001 to 0.999 nM in test [2].
The matching figures for `COC(=O)N[C@H](C(=O)N1CCC[C@H]1c1nc(Cl)c(-c2ccc3c(c2)OCCc2cc(-c4[nH]c([C@@H]5CCCN5C(=O)[C@@H](NC(=O)OC)C(C)C)nc4Cl)sc2-3)[nH]1)C(C)C` [Compound 3, dimethyl((2S,2′S)-((2S,2′S)-2,2′-(5,5′-(4,5-dihydrobenzo[b]thieno[2,3-d]oxepine-2,8-diyl)bis(4-chloro-1H-imidazole-5,2-diyl))bis(pyrrolidine-2,1-diyl))bis(3-methyl-1-oxobutane-2,1-diyl))dicarbamate]: 1 to 100 nM and 0.001 to 0.999 nM.
The matching figures for `COC(=O)N[C@H](C(=O)N1CCC[C@H]1c1ncc(-c2ccc3c(ccc4sc(-c5cnc([C@@H]6CCCN6C(=O)[C@@H](NC(=O)OC)C(C)C)[nH]5)nc43)c2)[nH]1)C(C)C` [Compound 4, dimethyl((2S,2′S)-((2S,2′S)-2,2′-(5,5′-(naphtho[1,2-d]thiazole-2,7-diyl)bis(1H-imidazole-5,2-diyl))bis(pyrrolidine-2,1-diyl))bis(3-methyl-1-oxobutane-2,1-diyl))dicarbamate]: above 100 nM and 0.001 to 0.999 nM.
Taken in the same sequence, the figures for `COC(=O)N[C@H](C(=O)N1CCC[C@H]1c1ncc(-c2ccc3c(c2)CCc2cc(-c4cnc([C@@H]5CCCN5C(=O)[C@@H](NC(=O)OC)C(C)C)[nH]4)sc2-3)[nH]1)C(C)C` [Compound 5, dimethyl((2S,2′S)-((2S,2′S)-2,2′-(5,5′-(4,5-dihydronaphtho[1,2-b]thiophene-2,7-diyl)bis(1H-imidazole-5,2-diyl))bis(pyrrolidine-2,1-diyl))bis(3-methyl-1-oxobutane-2,1-diyl))dicarbamate] were 0.001 to 0.999 nM and 0.001 to 0.999 nM.
For the molecule `COC(=O)N[C@H](C(=O)N1CCC[C@H]1c1nc(Cl)c(-c2ccc3c(c2)CCc2c-3sc(-c3[nH]c([C@@H]4CCCN4C(=O)[C@@H](NC(=O)OC)C(C)C)nc3Cl)c2Cl)[nH]1)C(C)C` [Compound 6, dimethyl((2S,2′S)-((2S,2′S)-2,2′-(5,5′-(3-chloro-4,5-dihydronaphtho[1,2-b]thiophene-2,7-diyl)bis(4-chloro-1H-imidazole-5,2-diyl))bis(pyrrolidine-2,1-diyl))bis(3-methyl-1-oxobutane-2,1-diyl))dicarbamate], the IC50 in test [1] and in test [2] was 0.001 to 0.999 nM in each case.
Regarding `COC(=O)N[C@H](C(=O)N1CCC[C@H]1c1ncc(-c2ccc3c(ccc4cc(-c5cnc([C@@H]6CCCN6C(=O)[C@@H](NC(=O)OC)C(C)C)[nH]5)sc43)c2)[nH]1)C(C)C` [Compound 7, dimethyl((2S,2′S)-((2S,2′S)-2,2′-(5,5′-(naphtho[1,2-b]thiophene-2,7-diyl)bis(1H-imidazole-5,2-diyl))bis(pyrrolidine-2,1-diyl))bis(3-methyl-1-oxobutane-2,1-diyl))dicarbamate], the IC50 in test [1] and in test [2] was 0.001 to 0.999 nM throughout.
With `COC(=O)N[C@H](C(=O)N1CCC[C@H]1c1ncc(-c2ccc3c(c2)CCCc2cc(-c4cnc([C@@H]5CCCN5C(=O)[C@@H](NC(=O)OC)C(C)C)[nH]4)sc2-3)[nH]1)C(C)C` [Compound 8, dimethyl((2S,2′S)-((2S,2′S)-2,2′-(5,5′-(5,6-dihydro-4H-benzo[6,7]cyclohepta[1,2-b]thiophene-2,8-diyl)bis(1H-imidazole-5,2-diyl))bis(pyrrolidine-2,1-diyl))bis(3-methyl-1-oxobutane-2,1-diyl))dicarbamate], the IC50 in test [1] and in test [2] was 0.001 to 0.999 nM throughout.
On to `COC(=O)N[C@H](C(=O)N1CCC[C@H]1c1nc(Cl)c(-c2ccc3c(c2)CCCc2cc(-c4[nH]c([C@@H]5CCCN5C(=O)[C@@H](NC(=O)OC)C(C)C)nc4Cl)sc2-3)[nH]1)C(C)C` [Compound 9, dimethyl((2S,2′S)-((2S,2′S)-2,2′-(5,5′-(5,6-dihydro-4H-benzo[6,7]cyclohepta[1,2-b]thiophene-2,8-diyl)bis(4-chloro-1H-imidazole-5,2-diyl))bis(pyrrolidine-2,1-diyl))bis(3-methyl-1-oxobutane-2,1-diyl))dicarbamate], for which the IC50 in test [1] and in test [2] was 0.001 to 0.999 nM throughout.
In the case of `COC(=O)N[C@H](C(=O)N1C(c2ncc(-c3ccc4c(ccc5cc(-c6cnc(C7[C@H]8CC[C@H](C8)N7C(=O)[C@@H](NC(=O)OC)C(C)C)[nH]6)sc54)c3)[nH]2)[C@H]2CC[C@@H]1C2)C(C)C` (stereo partly drawn) [Compound 10, dimethyl((2S,2′S)-((1R,1′R,3S,3′S,4S,4′S)-3,3′-(5,5′-(naphtho[1,2-b]thiophene-2,7-diyl)bis(1H-imidazole-5,2-diyl))bis(2-azabicyclo[2.2.1]heptane-3,2-diyl))bis(3-methyl-1-oxobutane-2,1-diyl))dicarbamate], the IC50 in test [1] and in test [2] was 0.001 to 0.999 nM throughout.
As for `COC(=O)N[C@H](C(=O)N1CCC[C@H]1c1ncc(-c2ccc3c(ccc4cc(-c5cnc([C@@H]6[C@H]7CC[C@H](C7)N6C(=O)[C@@H](NC(=O)OC)C(C)C)[nH]5)sc43)c2)[nH]1)C(C)C` [Compound 11, methyl((S)-1-((S)-2-(5-(2-(2-((1R,3S,4S)-2-((S)-2-(methoxycarbonyl)amino-3-methylbutanoyl)-2-azabicyclo[2.2.1]heptan-3-yl)-1H-imidazol-5-yl)naphtho[1,2-b]thiophen-7-yl)-1H-imidazol-2-yl)pyrrolidin-1-yl)-3-methyl-1-oxobutan-2-yl)carbamate], the IC50 in test [1] and in test [2] was 0.001 to 0.999 nM in each case.
